Results as given in patent US9334285B2, “Aldosterone synthase inhibitors” (Boehringer Ingelheim International GmbH, priority 2014, dated 2016).
Read-outs that look alike come from different tables or passages of the source. One block for each compound: values may come before it.

Assays:
[1] = molecular target: T1, aldosterone synthase (CYP11B2) (Macaca fascicularis, UniProt A0A2K5UPL9); assay: Inhibition of aldosterone synthase, cynomolgus adrenal mitochondria, aldosterone quantified by mass spectrometry; type: biochemical, cynomolgus monkey; details: 2 μM corticosterone, 90 minutes at 37° C.
T1 construct: employ cynomolgus adrenal gland mitochondria as the source of aldosterone synthase (CYP11B2); from tissue; host or cells: cynomolgus monkey adrenal gland mitochondria
T1 sequence (A0A2K5UPL9 1-503): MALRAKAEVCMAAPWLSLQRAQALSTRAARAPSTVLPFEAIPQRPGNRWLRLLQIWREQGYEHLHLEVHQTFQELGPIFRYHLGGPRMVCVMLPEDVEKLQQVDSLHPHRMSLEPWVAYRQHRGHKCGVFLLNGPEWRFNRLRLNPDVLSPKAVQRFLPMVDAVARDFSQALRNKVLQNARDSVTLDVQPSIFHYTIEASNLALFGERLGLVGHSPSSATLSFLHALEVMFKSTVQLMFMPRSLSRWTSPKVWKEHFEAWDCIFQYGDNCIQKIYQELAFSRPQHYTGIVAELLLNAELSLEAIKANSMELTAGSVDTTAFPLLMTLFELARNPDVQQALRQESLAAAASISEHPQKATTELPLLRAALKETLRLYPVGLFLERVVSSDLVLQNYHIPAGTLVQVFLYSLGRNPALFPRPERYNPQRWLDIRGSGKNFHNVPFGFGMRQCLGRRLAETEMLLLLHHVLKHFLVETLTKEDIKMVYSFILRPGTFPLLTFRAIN
Experimental: The aldosterone synthase and cortisol synthase inhibition assays employ cynomolgus adrenal gland mitochondria as the source of aldosterone synthase (CYP11B2) and cortisol synthase (CYP11B1). […] One unit of CYP11B2 and CYP11B1 activity in these preparations is defined as the amount of enzyme that generates 1 pmol of product in one hour under the conditions described.
The compounds of the invention may be evaluated for aldosterone synthase inhibition by the following assay:
Assays are performed in 96-well format in a final volume of 60 microL/well, containing 100 mM potassium phosphate, pH 7.4, 1% (v/v) DMSO, and additionally, 2 μM of corticosterone and 50 units of CYP11B2 activity. Reactions are started by the addition of NADPH to 1 mM and allowed to proceed for 90 minutes at 37° C. Reactions are terminated by the addition of 60 μL of MeCN containing an internal standard for mass spectrometry. One hundred microliters are then transferred to a glass filter plate and centrifuged at 570×g for 5 minutes and the filtrate is collected. Reaction product aldosterone is quantified by mass spectrometry. To determine the assay blank value (0% activity), NADPH is omitted from some reactions.
Dose dependent inhibition is quantified by the inclusion of compound at various concentrations. Maximum activity (100%) is defined by reactions containing NADPH, but without compound.

[2] = molecular target: cortisol synthase (CYP11B1) (Macaca fascicularis, UniProt A0A2K5ULY1); assay: Inhibition of cortisol synthesis, cynomolgus adrenal mitochondria, 11-deoxycortisol as substrate; type: biochemical, cynomolgus monkey; details: 150 units of CYP11B1, 11-deoxycortisol as substrate
Experimental: The aldosterone synthase and cortisol synthase inhibition assays employ cynomolgus adrenal gland mitochondria as the source of aldosterone synthase (CYP11B2) and cortisol synthase (CYP11B1). Mitochondria are prepared from frozen cynomolgus monkey adrenal glands according to Method A described in by J. D. McGarry et al. (Biochem. J., 1983, 214, 21-28), with a final resuspension in the AT buffer described in R. Yamaguchi et al. (Cell Death and Differentiation, 2007, 14, 616-624), frozen as aliquots in liquid nitrogen and stored at −80° C. until use. One unit of CYP11B2 and CYP11B1 activity in these preparations is defined as the amount of enzyme that generates 1 pmol of product in one hour under the conditions described.
Assays are performed as for aldosterone synthase except for the use of 150 units of CYP11B1, 11-deoxycortisol as substrate and cortisol measured as product.

[3] = cynomolgus adrenal mitochondria, read-out: Cortisol Inhibition IC50
[4] = Cortisol Inhibition IC50, cynomolgus adrenal mitochondria

SMILES: CC1(CO)Cc2ncn(-c3ccc(Cl)cc3)c2C(=O)O1 (single isomer, unassigned) [Compound 38B, 3-(4-chlorophenyl)-6-(hydroxymethyl)-6-methyl-3H,4H,6H,7H-pyrano[3,4-d]imidazol-4-one]
IC50 [1]: 390 nM
IC50 [2, 3]: 36000 nM

SMILES: CC1(C)Cc2ncn(-c3ccc(Cl)c(C#N)c3)c2C(=O)O1 [Compound 12, 2-chloro-5-{6,6-dimethyl-4-oxo-3H,4H,6H,7H-pyrano[3,4-d]imidazol-3-yl}benzonitrile]
IC50 [1]: 290 nM
IC50 [2, 3]: 24000 nM

SMILES: CC1(CO)Cc2ncn(C3Cc4ccccc4C3)c2C(=O)O1 (centres unmarked) [Compound 27, 3-(2,3-dihydro-1H-inden-2-yl)-6-(hydroxymethyl)-6-methyl-3H,4H,6H,7H-pyrano[3,4-d]imidazol-4-one]
IC50 [1]: 220 nM
IC50 [2, 3]: > 30000 nM

SMILES: CC(=O)OCC1(C)Cc2ncn(-c3ccc(C#N)c(Cl)c3)c2C(=O)O1 (centres unmarked) [Compound 32, [3-(3-chloro-4-cyanophenyl)-6-methyl-4-oxo-3H,4H,6H,7H-pyrano[3,4-d]imidazol-6-yl]methyl acetate]
IC50 [1]: 36 nM
IC50 [2, 4]: 6500 nM

SMILES: N#Cc1ccc(-n2cnc3c2C(=O)OCC3)cc1 [Compound 21, 4-{4-oxo-3H,4H,6H,7H-pyrano[3,4-d]imidazol-3-yl}benzonitrile]
IC50 [1]: 420 nM
IC50 [2, 3]: 82000 nM

SMILES: O=C1OCCc2ncn(-c3ccc(Cl)cc3)c21 [Compound 20, 3-(4-chlorophenyl)-3H,4H,6H,7H-pyrano[3,4-d]imidazol-4-one]
IC50 [1]: 470 nM
IC50 [2, 3]: 65000 nM

SMILES: CC1(CO)Cc2ncn(-c3cccc(F)c3Cl)c2C(=O)O1 (single isomer, unassigned) [Compound 34A, 3-(2-chloro-3-fluorophenyl)-6-(hydroxymethyl)-6-methyl-3H,4H,6H,7H-pyrano[3,4-d]imidazol-4-one]
IC50 [1]: 870 nM
IC50 [2, 3]: > 30000 nM

SMILES: COC(=O)C1(C)Cc2ncn(-c3ccc(C#N)c(Cl)c3)c2C(=O)O1 (centres unmarked) [Compound 45, 3-(3-Chloro-4-cyano-phenyl)-6-methyl-4-oxo-3,4,6,7-tetrahydro-pyrano[3,4-d]imidazole-6-carboxylic acid methyl ester]
IC50 [1]: 28 nM
IC50 [2, 4]: 1100 nM

SMILES: O=C1OCCc2ncn(-c3ccc(F)c(F)c3)c21 [Compound 24, 3-(3,4-difluorophenyl)-3H,4H,6H,7H-pyrano[3,4-d]imidazol-4-one]
IC50 [1]: 440 nM
IC50 [2, 3]: 20000 nM

SMILES: CC1(C)Cc2ncn(-c3ccccc3)c2C(=O)O1 [Compound 17, 6,6-dimethyl-3-phenyl-3H,4H,6H,7H-pyrano[3,4-d]imidazol-4-one]
IC50 [1]: 390 nM
IC50 [2, 3]: 61000 nM

SMILES: CC1(CO)Cc2ncn(-c3cccc(Cl)c3F)c2C(=O)O1 (single isomer, unassigned) [Compound 35B, 3-(3-chloro-2-fluorophenyl)-6-(hydroxymethyl)-6-methyl-3H,4H,6H,7H-pyrano[3,4-d]imidazol-4-one]
IC50 [1]: 620 nM
IC50 [2, 3]: > 30000 nM

SMILES: O=C1OCCc2ncn(C3Cc4ccccc4C3)c21 [Compound 25, 3-(2,3-dihydro-1H-inden-2-yl)-3H,4H,6H,7H-pyrano[3,4-d]imidazol-4-one]
IC50 [1]: 500 nM
IC50 [2, 4]: > 30000 nM

SMILES: CC1Cc2ncn(-c3ccc(C#N)c(Cl)c3)c2C(=O)O1 (single isomer, unassigned) [Compound 15A, 2-chloro-4-[6-methyl-4-oxo-3H,4H,6H,7H-pyrano[3,4-d]imidazol-3-yl]benzonitrile]
IC50 [1]: 7.5 nM
IC50 [2, 4]: 3400 nM

SMILES: CC1Cc2ncn(-c3ccc(C#N)c(Cl)c3)c2C(=O)O1 (single isomer, unassigned) [Compound 15B, 2-chloro-4-[6-methyl-4-oxo-3H,4H,6H,7H-pyrano[3,4-d]imidazol-3-yl]benzonitrile]
IC50 [1]: 12 nM
IC50 [2, 4]: 6400 nM

SMILES: CC1(CO)Cc2ncn(-c3ccc4c(c3)CCO4)c2C(=O)O1 (single isomer, unassigned) [Compound 42A, 3-(2,3-Dihydro-benzofuran-5-yl)-6-hydroxymethyl-6-methyl-6,7-dihydro-3H-pyrano[3,4-d]imidazol-4-one]
IC50 [1]: 210 nM
IC50 [2, 3]: > 30000 nM

SMILES: O=C1OC(CO)Cc2ncn(-c3ccc(Cl)cc3)c21 (centres unmarked) [Compound 36, 3-(4-chlorophenyl)-6-(hydroxymethyl)-3H,4H,6H,7H-pyrano[3,4-d]imidazol-4-one]
IC50 [1]: 540 nM
IC50 [2, 3]: > 100000 nM

SMILES: CN(C)C(=O)C1(C)Cc2ncn(-c3ccc(C#N)c(Cl)c3)c2C(=O)O1 (centres unmarked) [Compound 46, 3-(3-chloro-4-cyano-phenyl)-6-methyl-4-oxo-3,4,6,7-tetrahydro-pyrano[3,4-d]imidazole-6-carboxylic acid dimethylamide]
IC50 [1]: 89 nM
IC50 [2, 4]: 13000 nM

SMILES: CN1C(=O)CCc2cc(-n3cnc4c3C(=O)OC(C)(CO)C4)ccc21 (single isomer, unassigned) [Compound 40B, 6-[6-(hydroxymethyl)-6-methyl-4-oxo-3H,4H,6H,7H-pyrano[3,4-d]imidazol-3-yl]-1-methyl-1,2,3,4-tetrahydroquinolin-2-one]
IC50 [1]: 460 nM
IC50 [2, 3]: > 30000 nM

SMILES: CC1(CO)Cc2ncn(-c3ccc(C#N)cc3)c2C(=O)O1 (centres unmarked) [Compound 37, 4-[6-(hydroxymethyl)-6-methyl-4-oxo-3H,4H,6H,7H-pyrano[3,4-d]imidazol-3-yl]benzonitrile]
IC50 [1]: 210 nM
IC50 [2, 3]: 34000 nM

More lines, now with the values ahead:

IC50 [1]: 8.4 nM
IC50 [2, 3]: 1200 nM
SMILES: CC1(C)Cc2ncn(-c3ccc(Cl)c(Cl)c3)c2C(=O)O1 [Compound 4, 3-(3,4-dichlorophenyl)-6,6-dimethyl-3H,4H,6H,7H-pyrano[3,4-d]imidazol-4-one]

IC50 [1]: 160 nM
IC50 [2, 3]: > 30000 nM
SMILES: CN1C(=O)CCc2cc(-n3cnc4c3C(=O)OC(C)(CO)C4)ccc21 (single isomer, unassigned) [Compound 40A, 6-[6-(hydroxymethyl)-6-methyl-4-oxo-3H,4H,6H,7H-pyrano[3,4-d]imidazol-3-yl]-1-methyl-1,2,3,4-tetrahydroquinolin-2-one]

IC50 [1]: 55 nM
IC50 [2, 3]: 2300 nM
SMILES: CC(C)(C)OC(=O)NCC1(C)Cc2ncn(-c3ccc(F)c(F)c3)c2C(=O)O1 (centres unmarked) [Compound 1, tert-butyl N{[3-(3,4-difluorophenyl)-6-methyl-4-oxo-3H,4H,6H,7H-pyrano[3,4-d]imidazol-6-yl]methyl}carbamate]

IC50 [1]: 120 nM
IC50 [2, 3]: 19000 nM
SMILES: CC1(CO)Cc2ncn(-c3ccc(Cl)cc3)c2C(=O)O1 (single isomer, unassigned) [Compound 38A, 3-(4-chlorophenyl)-6-(hydroxymethyl)-6-methyl-3H,4H,6H,7H-pyrano[3,4-d]imidazol-4-one]

IC50 [1]: 64 nM
IC50 [2, 3]: 25000 nM
SMILES: CC1(C)Cc2ncn(C3Cc4ccccc4C3)c2C(=O)O1 [Compound 26]

IC50 [1]: 50 nM
IC50 [2, 3]: 6800 nM
SMILES: CC1(C)Cc2ncn(-c3cccc(F)c3Cl)c2C(=O)O1 [Compound 7, 3-(2-chloro-3-fluorophenyl)-6,6-dimethyl-3H,4H,6H,7H-pyrano[3,4-d]imidazol-4-one]

IC50 [1]: 8.6 nM
IC50 [2, 3]: 6000 nM
SMILES: CC1Cc2ncn(-c3ccc(Cl)c(Cl)c3)c2C(=O)O1 (centres unmarked) [Compound 41, 3-(3,4-dichlorophenyl)-6-methyl-3H,4H,6H,7H-pyrano[3,4-d]imidazol-4-one]

IC50 [1]: 130 nM
IC50 [2, 3]: 13000 nM
SMILES: CC1(C)Cc2ncn(-c3ccc(F)cc3)c2C(=O)O1 [Compound 14, 3-(4-fluorophenyl)-6,6-dimethyl-3H,4H,6H,7H-pyrano[3,4-d]imidazol-4-one]

IC50 [1]: 14 nM
IC50 [2, 3]: 10000 nM
SMILES: O=C1OCCc2ncn(-c3ccc(Cl)c(Cl)c3)c21 [Compound 23, 3-(3,4-dichlorophenyl)-3H,4H,6H,7H-pyrano[3,4-d]imidazol-4-one]
